Data: paper PMC6522510 (Nature Communications, 2019)
Like-named read-outs stand apart in the source and are kept apart here.

How the values were obtained:
Set-up in all cases: species or system AML cell lines (8); Primary HTS, single concentration about 10 uM, Cell Titer Glo viability; log10 luminescence, per cent inhibition relative to cycloheximide control
Conditions in all cases: 72 h, inhibitor
CHRF288-11 = tested on: CHRF288-11
CMK = tested on: CMK
CMS = tested on: CMS
M07e = tested on: M07e
ML-2 = tested on: ML-2
MOLM-13 = tested on: MOLM-13
MV4-11 = tested on: MV4-11
U937 = tested on: U937
[1] = relative to cycloheximide control, log10 luminescence

SMILES	CHRF288-11 %inh (CHRF288-11; [1])	CMK %inh (CMK; [1])	CMS %inh (CMS; [1])	M07e %inh (M07e; [1])	ML-2 %inh (ML-2; [1])	MOLM-13 %inh (MOLM-13; [1])	MV4-11 %inh (MV4-11; [1])	U937 %inh (U937; [1])	other results
CNCC1CCn2c(c(C3=C(c4cn(C)c5ccccc45)C(=O)NC3=O)c3ccccc32)C1 (stereo not shown) [SJ000581026-1]	5.735%	19.67%	2.453%	4.053%	5.596%	5.409%	3.218%	3.941%	–
N#CCn1c(=O)c(Oc2ccc(F)cc2F)cc2cnc(NC3CCOCC3)nc21 [SJ000581089-1]	0.7869%	1.27%	1.167%	5.15%	0.2559%	79.15%	0.2945%	0.6532%	–
CC(=O)Nc1cccc(C#Cc2cncnc2Nc2ccc(OCc3cccc(F)c3)c(Cl)c2)n1 [SJ000573352-1, U17741/29/4]	-2.536%	2.98%	-3.127%	-1.039%	-1.648%	1.614%	2.175%	0.4059%	–
CC1=C(C(=O)Nc2ccc3[nH]ncc3c2)C(c2ccc(F)cc2)N=C(c2ccc(C(F)(F)F)nc2)N1 (stereo not shown) [SJ000573083-1, GW204431-043A1]	5.88%	6.755%	-1.221%	0.1515%	3.386%	1.317%	0.5281%	-1.3%	–
CCOC(=O)C1=C(N)Oc2ccc(Br)cc2[C@H]1[C@H](C#N)C(=O)OCC [SJ000574273-1, HA14-1]	-0.6917%	4.094%	0.956%	0.5476%	-0.1514%	2.194%	14.02%	6.381%	–
CC(=O)OCC(CCn1cnc2cnc(N)nc21)COC(C)=O [SJ000286077-3, FAMCICLOVIR]	-0.6265%	3.857%	3.04%	-1.801%	-0.1732%	3.343%	1.495%	2.68%	–
CN1CCC(n2cnc(-c3ccc(F)cc3)c2-c2ccnc(N)n2)CC1 [SJ000573221-1, JB19236-039E1]	35.57%	38.27%	5.129%	20.04%	19.36%	26.24%	16.49%	13.28%	–
C[C@H](CS(C)(=O)=O)Nc1ncc2cc(Oc3ccc(F)cc3F)c(=O)n(C)c2n1 [SJ000581059-1]	14.97%	-5.286%	4.304%	5.493%	1.6%	-1.998%	-0.5733%	2.611%	–
CCCN1CCC(c2ccc(Nc3nc(Nc4cc(F)ccc4C(N)=O)c4cc[nH]c4n3)c(OC)c2)CC1 [SJ000573328-1, U23536/58/1]	106.3%	51.59%	49%	37.4%	55.61%	66.64%	58.24%	63.82%	–
O=C(Nc1n[nH]c2nnc(-c3cccnc3)cc12)C1CC1 [SJ000573209-1, VB49227-069A2]	–	–	–	–	–	–	–	–	CHRF288-11 %inh (CHRF288-11; 10 µM): 36.24%; CMK %inh (CMK; 10 µM): 119.5%; CMS %inh (CMS; 10 µM): 99.51%; M07e %inh (M07e; 10 µM): 20.82%; ML-2 %inh (ML-2; 10 µM): 10.24%; MOLM-13 %inh (MOLM-13; 10 µM): 58.37%; MV4-11 %inh (MV4-11; 10 µM): 53.21%; U937 %inh (U937; 10 µM): 14.39%
Cc1nnc(C(C)C)n1[C@@H]1C[C@H]2CC[C@@H](C1)N2CC[C@H](NC(=O)C1CCC(F)(F)CC1)c1ccccc1 [SJ000555710-1, MARAVIROC]	3.241%	-4.287%	-2.259%	0.2532%	-1.344%	-2.386%	0.334%	-1.411%	–
COc1cc2ncn(-c3cc(O[C@@H](C)c4ccccc4Cl)c(C(N)=O)s3)c2cc1OC [SJ000573003-1, U20723/53/1 | U20723/56/1]	52.73%	79.08%	40.55%	89.94%	43.99%	83.64%	67.89%	74.14%	–
Cn1cc(C2=C(c3cn(C)c4c(N)cccc34)C(=O)NC2=O)c2ccccc21 [SJ000581084-1]	31.5%	34.34%	26.64%	30.04%	31.97%	57.26%	35.68%	30.59%	–
N#Cc1c(NC(=O)c2ccc(F)cc2)sc2c1CCCC2 [SJ000573282-1, R15619/128/1]	20.67%	5.634%	0.2829%	6.55%	2.372%	3.13%	-0.9119%	2.356%	–
Cn1cc(C2=C(c3cn(CCCO)c4ccccc34)C(=O)NC2=O)c2ccccc21 [SJ000580995-1]	44.69%	64.37%	6.597%	3.572%	-3.665%	52.73%	37.67%	2.993%	–
CN(CCCCCCCCCCN(C)C(=O)Oc1cccc([N+](C)(C)C)c1)C(=O)Oc1cccc([N+](C)(C)C)c1 [SJ000287334-3, DEMECARIUM BROMIDE]	–	–	–	–	–	–	–	–	CHRF288-11 %inh (CHRF288-11; relative to cycloheximide control, log10 luminescence, CHRF288-11 %inh, 10 µM): -4.258%; CMK %inh (CMK; relative to cycloheximide control, log10 luminescence, CMK %inh, 10 µM): 4.147%; CMS %inh (CMS; relative to cycloheximide control, log10 luminescence, CMS %inh, 10 µM): 4.988%; M07e %inh (M07e; relative to cycloheximide control, log10 luminescence, M07e %inh, 10 µM): 11.04%; ML-2 %inh (ML-2; relative to cycloheximide control, log10 luminescence, ML-2 %inh, 10 µM): 2.323%; MOLM-13 %inh (MOLM-13; relative to cycloheximide control, log10 luminescence, MOLM-13 %inh, 10 µM): 13.7%; MV4-11 %inh (MV4-11; relative to cycloheximide control, log10 luminescence, MV4-11 %inh, 10 µM): 33.39%; U937 %inh (U937; relative to cycloheximide control, log10 luminescence, U937 %inh, 10 µM): 32.99%
Nc1c(C(=O)c2cccc(OCCN3CCOCC3)c2)cnn1-c1ccc(F)cc1 [SJ000581103-1]	-1.374%	0.9343%	-1.582%	6.806%	2.31%	-0.4893%	1.093%	7.007%	–
